Row | melting point | SMILES
1 | 138 to 139 °C | CCOc1nn(-c2ccc(C(F)(F)F)cn2)cc1CCCOc1ccc(OC)cc1CC(=O)O [Example 132, [2-(3-{3-ethoxy-1-[5-(trifluoromethyl)-2-pyridyl]-1H-pyrazol-4-yl}propoxy)-5-methoxyphenyl]acetic acid]
2 | 141 to 142 °C | CC(C)(Oc1cccc(OCCCc2cn(-c3ccc(C(F)(F)F)cn3)nc2-c2ccccc2)c1)C(=O)O [Example 133, 2-methyl-2-[3-(3-{3-phenyl-1-[5-(trifluoromethyl)-2-pyridyl]-1H-pyrazol-4-yl}propoxy)phenoxy]propionic acid]
3 | 133 to 134 °C | O=C(O)Cc1ccccc1OCCCc1cn(-c2ccc(C(F)(F)F)cn2)nc1-c1ccccc1 [Example 134, [2-(3-{3-phenyl-1-[5-(trifluoromethyl)-2-pyridyl]-1H-pyrazol-4-yl}propoxy)phenyl]acetic acid]
4 | 115 to 116 °C | CCOc1nn(-c2ccc(C(F)(F)F)cn2)cc1CCCOc1nn(C)cc1CC(=O)O [Example 135, [3-(3-{3-ethoxy-1-[5-(trifluoromethyl)-2-pyridyl]-1H-pyrazol-4-yl}propoxy)-1-methyl-1H-pyrazol-4-yl]acetic acid]
5 | 117 to 118 °C | CCOc1nn(-c2ccc(C(F)(F)F)cn2)cc1CCCOc1nn(-c2ccccc2)cc1CC(=O)O [Example 136, [3-(3-{3-ethoxy-1-[5-(trifluoromethyl)-2-pyridyl]-1H-pyrazol-4-yl}propoxy)-1-phenyl-1H-pyrazol-4-yl]acetic acid]
6 | 130 to 131 °C | CCOc1nn(-c2ccc(C(F)(F)F)cn2)cc1CCCOc1ccc(Cl)cc1CC(=O)O [Example 139, [5-chloro-2-(3-{3-ethoxy-1-[5-(trifluoromethyl)-2-pyridyl]-1H-pyrazol-4-yl}propoxy)phenyl]acetic acid]
7 | 104 to 105 °C | CCOc1ccc(OCCCc2cn(-c3ccc(C(F)(F)F)cn3)nc2OCC)c(CCC(=O)O)c1 [Example 140, 3-[2-(3-{3-ethoxy-1-[5-(trifluoromethyl)-2-pyridyl]-1H-pyrazol-4-yl}propoxy)-5-ethoxyphenyl]propionic acid]
8 | 128 to 129 °C | Cc1nn(-c2ccc(C(F)(F)F)cn2)cc1CCCOc1ccccc1CC(=O)O [Example 141, [2-(3-{3-methyl-1-[5-(trifluoromethyl)-2-pyridyl]-1H-pyrazol-4-yl}propoxy)phenyl]acetic acid]
9 | 147 to 148 °C | CCOc1nn(-c2ccc(C(F)(F)F)cn2)cc1CCCOc1cc(OC)ccc1CC(=O)O [Example 142, [2-(3-{3-ethoxy-1-[5-(trifluoromethyl)-2-pyridyl]-1H-pyrazol-4-yl}propoxy)-4-methoxyphenyl]acetic acid]
10 | 115 to 116 °C | CCOc1nn(-c2ccc(C(F)(F)F)cn2)cc1CCCOc1cc(OC)ccc1CCC(=O)O [Example 143, 3-[2-(3-{3-ethoxy-1-[5-(trifluoromethyl)-2-pyridyl]-1H-pyrazol-4-yl}propoxy)-4-methoxyphenyl]propionic acid]
11 | 93 to 94 °C | CCOc1nn(-c2ccc(C(F)(F)F)cn2)cc1CCCOc1ccccc1CCC(=O)O [Example 144, 3-[2-(3-{3-ethoxy-1-[5-(trifluoromethyl)-2-pyridyl]-1H-pyrazol-4-yl}propoxy)phenyl]propionic acid]
12 | 87 to 88 °C | CCOc1nn(-c2ccc(C(F)(F)F)cn2)cc1CCCOc1c(CCC(=O)O)cccc1OC [Example 145, 3-[2-(3-{3-ethoxy-1-[5-(trifluoromethyl)-2-pyridyl]-1H-pyrazol-4-yl}propoxy)-3-methoxyphenyl]propionic acid]
13 | 77 to 78 °C | CCCc1nn(-c2ccc(C(F)(F)F)cn2)cc1COc1cccc(CC(=O)O)c1 [Example 147, [3-({3-propyl-1-[5-(trifluoromethyl)-2-pyridyl]-1H-pyrazol-4-yl}methoxy)phenyl]acetic acid]
14 | 110 to 111 °C | CCOc1nn(-c2ccc(C(F)(F)F)cn2)cc1CCCOc1cccc(OC)c1CCC(=O)O [Example 148, 3-[2-(3-{3-ethoxy-1-[5-(trifluoromethyl)-2-pyridyl]-1H-pyrazol-4-yl}propoxy)-6-methoxyphenyl]propionic acid]
15 | 142 to 143 °C | Cc1nn(-c2ccc(C(F)(F)F)cn2)cc1COc1cccc(CC(=O)O)c1 [Example 149, [3-({3-methyl-1-[5-(trifluoromethyl)-2-pyridyl]-1H-pyrazol-4-yl}methoxy)phenyl]acetic acid]
16 | 192 to 194 °C | CCOc1cc(OCCCc2cn(-c3ccc(C(F)(F)F)cn3)nc2O)ccc1CCC(=O)O [Example 151, 3-[2-ethoxy-4-(3-{3-hydroxy-1-[5-(trifluoromethyl)-2-pyridyl]-1H-pyrazol-4-yl}propoxy)phenyl]propanoic acid]
17 | 106 to 107 °C | CCOc1cc(OCCCc2cn(-c3ccc(C(F)(F)F)cn3)nc2OCc2ccccc2)ccc1CCC(=O)O [Example 156, 3-[4-(3-{3-benzyloxy-1-[5-(trifluoromethyl)-2-pyridyl]-1H-pyrazol-4-yl}propoxy)-2-ethoxyphenyl]propanoic acid]

Row | melting point | SMILES
18 | 82 to 83 °C | CCCc1nn(-c2ccc(C(F)(F)F)cn2)cc1CCCOc1cccc(C(C)(C)C(=O)O)c1 [Example 159, 2-methyl-2-[3-(3-{3-propyl-1-[5-(trifluoromethyl)-2-pyridyl]-1H-pyrazol-4-yl}propoxy)phenyl]propanoic acid]
19 | 131 to 132 °C | CCOc1nn(-c2ccc(C(F)(F)F)cn2)cc1CCCOc1cccc(C(C)(C)C(=O)O)c1 [Example 160, 2-[3-(3-{3-ethoxy-1-[5-(trifluoromethyl)-2-pyridyl]-1H-pyrazol-4-yl}propoxy)phenyl]-2-methylpropanoic acid]
20 | 124 to 125 °C | CCOc1nn(-c2ccc(C(F)(F)F)cn2)cc1CCCOc1ccc(CCC(=O)O)cc1O [Example 161, 3-[4-(3-{3-ethoxy-1-[5-(trifluoromethyl)-2-pyridyl]-1H-pyrazol-4-yl}propoxy)-3-hydroxyphenyl]propanoic acid]
21 | 114 to 115 °C | CCOc1cc(CCC(=O)O)ccc1OCCCc1cn(-c2ccc(C(F)(F)F)cn2)nc1OCC [Example 162, 3-[3-ethoxy-4-(3-{3-ethoxy-1-[5-(trifluoromethyl)-2-pyridyl]-1H-pyrazol-4-yl}propoxy)phenyl]propanoic acid]
22 | 106 to 107 °C | CCCOc1cc(CCC(=O)O)ccc1OCCCc1cn(-c2ccc(C(F)(F)F)cn2)nc1OCC [Example 163, 3-[4-(3-{3-ethoxy-1-[5-(trifluoromethyl)-2-pyridyl]-1H-pyrazol-4-yl}propoxy)-3-propoxyphenyl]propanoic acid]
23 | 93 to 94 °C | CCOc1nn(-c2ccc(C(F)(F)F)cn2)cc1CCCOc1ccc(CCC(=O)O)cc1OC(C)C [Example 164, 3-[4-(3-{3-ethoxy-1-[5-(trifluoromethyl)-2-pyridyl]-1H-pyrazol-4-yl}propoxy)-3-isopropoxyphenyl]propanoic acid]
24 | 115 to 116 °C | CCOc1nn(-c2ccc(C(F)(F)F)cn2)cc1CCCOc1ccc(CCC(=O)O)cc1OCc1ccccc1 [Example 166, 3-[3-benzyloxy-4-(3-{3-ethoxy-1-[5-(trifluoromethyl)-2-pyridyl]-1H-pyrazol-4-yl}propoxy)phenyl]propanoic acid]
25 | 99 to 100 °C | CCOc1nn(-c2ccc(C(F)(F)F)cn2)cc1CCCOc1cc(CCC(=O)O)cc(OC)c1 [Example 167, 3-[5-(3-{3-ethoxy-1-[5-(trifluoromethyl)-2-pyridyl]-1H-pyrazol-4-yl}propoxy)-3-methoxyphenyl]propanoic acid]
26 | 147 to 148 °C | CCOc1cc(OCCCc2cn(-c3ccc(C(F)(F)F)cn3)nc2O)ccc1CCC(=O)OC [Example 171, methyl 3-[2-ethoxy-4-(3-{3-hydroxy-1-[5-(trifluoromethyl)-2-pyridyl]-1H-pyrazol-4-yl}propoxy)phenyl]propanoate]
27 | 114 to 115 °C | CC(C)c1nn(-c2ccc(C(F)(F)F)cn2)cc1COc1cccc(CC(=O)O)c1 [Example 176, 3-{3-isopropyl-1-[5-(trifluoromethyl)-2-pyridyl]-1H-pyrazol-4-yl}methoxyphenylacetic acid]
28 | 150 to 151 °C | CCOc1nn(-c2ccc(C(F)(F)F)cn2)cc1CCCOc1cccc(OC)c1CC(=O)O [Example 177, [6-(3-{3-ethoxy-1-[5-(trifluoromethyl)-2-pyridyl]-1H-pyrazol-4-yl}propoxy)-2-methoxyphenyl]acetic acid]
29 | 92 to 93 °C | CC(C)c1nn(-c2ccc(C(F)(F)F)cc2)cc1COc1cccc(CC(=O)O)c1 [Example 178, [3-({3-isopropyl-1-[4-(trifluoromethyl)phenyl]-1H-pyrazol-4-yl}methoxy)phenyl]acetic acid]
30 | 122 to 123 °C | COc1ccc(CC(=O)O)cc1OCCCc1cn(-c2ccc(C(F)(F)F)cn2)nc1C(C)C [Example 183, [3-(3-{3-isopropyl-1-[5-(trifluoromethyl)-2-pyridyl]-1H-pyrazol-4-yl}propoxy)-4-methoxyphenyl]acetic acid]
31 | 129 to 130 °C | O=C(O)Cc1cccc(OCc2cn(-c3ccc(C(F)(F)F)cn3)nc2C2CCCCC2)c1 [Example 187, [3-({3-cyclohexyl-1-[5-(trifluoromethyl)-2-pyridyl]-1H-pyrazol-4-yl}methoxy)phenyl]acetic acid]
32 | 131 to 132 °C | O=C(O)Cc1ccccc1OCc1cn(-c2ccc(C(F)(F)F)cn2)nc1C1CCCCC1 [Example 188, [2-({3-cyclohexyl-1-[5-(trifluoromethyl)-2-pyridyl]-1H-pyrazol-4-yl}methoxy)phenyl]acetic acid]
33 | 94 to 95 °C | O=C(O)CCc1cccc(OCc2cn(-c3ccc(C(F)(F)F)cn3)nc2C2CCCCC2)c1 [Example 191, 3-(3-{3-cyclohexyl-1-[5-(trifluoromethyl)-2-pyridyl]-1H-pyrazol-4-yl}methoxyphenyl)propionic acid]

Row | SMILES | melting point
34 | CCCCOc1cc(CCC(=O)O)ccc1OCCCc1cn(-c2ccc(C(F)(F)F)cn2)nc1OCC [Example 165, 3-[3-butoxy-4-(3-{3-ethoxy-1-[5-(trifluoromethyl)-2-pyridyl]-1H-pyrazol-4-yl}propoxy)phenyl]propanoic acid] | 92 to 93 °C

Reference: US20060148858A1, “1, 2-Azole derivatives with hypoglycemic and hypolipidemic activity” (priority 2002, published 2006)
